Reference: patent EP0257285A2, “Method and compositions for reducing the intraocular pressure of mammals” (Whitby Research Incorporated, priority 1986, dated 1988)
Like-named read-outs stand apart in the source and are kept apart here.

Experiments:
rabbits = details: cited from earlier work
monkeys = details: Curr. Eye Res. 2, 281-288; cited from earlier work
Cebus apella monkeys = assay: Intraocular pressure (IOP) measurement after topical unilateral application to the eye of monkeys; assay type: in vivo; details: female Cebus apella monkeys, 50ul aliquots, doses 0.165, 0.5 and 1.65 mg, IOP at 0.5, 1, 2, 3, 4 and 5 hours post drug, compared to vehicle alone
Experimental: Male, albino New Zealand rabbits, and female Cebus apella monkeys are used in the example. Rabbits are used primarily to screen for undue ocular toxicity of 2-(N-propyl-N-2-phenylethylamino)-5-hydroxytetralin (active compound) before conducting experiments in monkeys.
A racemic mixture of 2-(N-propyl-N-2-phenylethylamino)-5-hydroxytetralin (active compound) is dissolved in distilled water (vehicle or carrier) on the day of the experiment. Solutions are administered in a masked manner, that is, solutions are prepared by a person that was neither involved in drug administration nor measurement of intraocular pressure (IOP) and pupil diameter (PD). The solution of the active compound is applied unilaterally with the contralateral (fellow) eye receiving vehicle only. Five monkeys are treated bilaterally with vehicle; one to two vehicle-treated monkeys are included each time a different dose of the active compound is used. Doses of active compound tested are: 0.165, 0.5 and 1.65 mg.
After taking two baseline (0 time) measurements, aliquots (50ul) of the solution of active compound and/or vehicle, only, are administered topically. Subsequently, IOP measurements are made at 0.5, 1, 2, 3, 4 and 5 hours post drug.

[1] = rabbits, Curr. Eye Res. 2, 281-288 and 3, 307-314

CCCN1C[C@H](CSC)C[C@@H]2c3cccc4[nH]cc(c34)C[C@H]21 [pergolide]
intraocular pressure of rabbits (rabbits; [1]): lower the intraocular pressure of rabbits
intraocular pressure of monkeys (monkeys): lowered the intraocular pressure of monkeys

CCCN(CCc1ccccc1)C1CCc2c(O)cccc2C1 (racemic) [active compound, 2-(N-propyl-N-2-phenylethylamino)-5-hydroxytetralin]
intraocular pressure (Cebus apella monkeys): effectively lower the intraocular pressure

CC(C)C[C@H]1C(=O)N2CCC[C@H]2[C@]2(O)O[C@](NC(=O)[C@@H]3C=C4c5cccc6[nH]c(Br)c(c56)C[C@H]4N(C)C3)(C(C)C)C(=O)N12 [Bromocriptine]
intraocular pressure of rabbits (rabbits; rabbit, in vivo): lower the intraocular pressure of rabbits

CN1C[C@H](CC#N)C[C@@H]2c3cccc4[nH]c(Cl)c(c34)C[C@H]21 [lergotrile]
intraocular pressure of rabbits (rabbits; [1]): lower the intraocular pressure of rabbits
intraocular pressure of monkeys (monkeys): lowered the intraocular pressure of monkeys
